{"source": "patent US20090068210A1", "about": "“IMMUNOTHERAPY FOR HEMATOLOGICAL MALIGNANCIES” (priority 2007, published 2009)", "key": {"iNKT cells [1]": {"system": "iNKT cells", "test": "Cytokine production (ELISA) by iNKT cells co-cultured with antigen presenting cells (MM1S.CD1d cells or DCs), with or without α-GalCer", "type": "cell-based, human", "experimental": "1×10^5 NKT cells from MM patients were plated in a 96-well plate with MM1S.CD1d cells or DCs at ratios of 2:1 and 4:1, respectively, with or without pre-loaded α-GalCer (100 ng/ml). 1-Oxo-2-(2,6-dioxopiperidin-3-yl)-4-aminoisoindoline (2 μM) was used as indicated, with DMSO as control. The supernatant was collected at 48 and 72 hours and the levels of IFN-γ, IL-2 and IL-4 were determined by ELISA (R&D Systems, Minneapolis, Minn.)."}, "iNKT cells [2]": {"system": "iNKT cells", "test": "Cytokine production (ELISA) by iNKT cells co-cultured with antigen presenting cells (MM1S.CD1d cells or DCs), with or without α-GalCer", "type": "cell-based, human", "remark": "listed apart in the source"}, "[3]": {"details": "cited from earlier work; for Hygroscopicity: polymorphic form; for Interconversion in solvent systems: interconversion studies"}, "[4]": {"details": "iNKT cells + MM1S.CD1d cells in the absence of α-GalCer, compound 2 μM, ELISA"}, "[5]": {"details": "iNKT cells + α-GalCer-loaded MM1S.CD1d cells, compound 2 μM vs controls (DMSO), ELISA"}}}
{"compound": "Nc1cccc2c1CN(C1CCC(=O)NC1=O)C2=O", "note": "(stereo not shown) [1-oxo-2-(2,6-dioxopiperidin-3-yl)-4-aminoisoindoline]", "values": [{"measurement": "IL-4 level", "setting": "iNKT cells [1]; iNKT cells + CD1d expressing multiple myeloma cells without α-GalCer, compound vs cells alone", "value": "decrease"}, {"measurement": "IFN-γ production", "setting": "iNKT cells [1]; [4]", "value": "increase"}, {"measurement": "IL-2 production", "setting": "iNKT cells [1]; [4]", "value": "increase"}, {"measurement": "IFN-γ level", "setting": "iNKT cells [1]; [5]", "value": "significant increase"}, {"measurement": "IL-2 level", "setting": "iNKT cells [1]; [5]", "value": "significant increase"}, {"measurement": "IL-4 level", "setting": "iNKT cells [1]; [5]", "value": "decrease"}, {"measurement": "Increase in IFN-γ and IL-2 levels and decrease in IL-4 level", "setting": "iNKT cells [2]; CD1d-transfected C1R cells as antigen presenting cells", "value": "confirmed"}, {"measurement": "Direct stimulation of iNKT cells", "setting": "iNKT cells [2]; iNKT cells alone or co-cultured with mock MM.1S cells, with or without α-GalCer", "value": "did not directly stimulate"}]}
{"compound": "Nc1cccc2c1CN(C1CCC(=O)NC1=O)C2=O", "note": "(stereo not shown) [Form A, 3-(4-amino-1-oxo-1,3 dihydro-isoindol-2-yl)-piperidene-2,6-dione]", "values": [{"measurement": "Relative stability among polymorphs", "setting": "[3]; Form A: anhydrous polymorphs, Form E: aqueous solvent systems", "value": "most thermodynamically stable anhydrous polymorph"}, {"measurement": "Hygroscopicity", "setting": "[3]", "value": "weakly or not hygroscopic"}]}
{"compound": "Nc1cccc2c1CN(C1CCC(=O)NC1=O)C2=O", "note": "(stereo not shown) [Form B, 3-(4-amino-1-oxo-1,3 dihydro-isoindol-2-yl)-piperidene-2,6-dione]", "values": [{"measurement": "Conversion upon heating", "setting": "[3]; 175° C. for about five minutes", "value": "can convert to Form F"}, {"measurement": "Interconversion in solvent systems", "setting": "[3]", "value": "converts to Form E in aqueous solvent systems"}]}
{"compound": "Nc1cccc2c1CN(C1CCC(=O)NC1=O)C2=O", "note": "(stereo not shown) [Form C, 3-(4-amino-1-oxo-1,3 dihydro-isoindol-2-yl)-piperidene-2,6-dione]", "values": [{"measurement": "Hygroscopicity", "setting": "[3]", "value": "not hygroscopic below about 85% RH"}]}
{"compound": "Nc1cccc2c1CN(C1CCC(=O)NC1=O)C2=O", "note": "(stereo not shown) [Form D, 3-(4-amino-1-oxo-1,3 dihydro-isoindol-2-yl)-piperidene-2,6-dione]", "values": [{"measurement": "Hygroscopicity", "setting": "[3]", "value": "either weakly or not hygroscopic"}]}
{"compound": "Nc1cccc2c1CN(C1CCC(=O)NC1=O)C2=O", "note": "(stereo not shown) [Form E, 3-(4-amino-1-oxo-1,3 dihydro-isoindol-2-yl)-piperidene-2,6-dione]", "values": [{"measurement": "Conversion upon heating (desolvation)", "setting": "[3]; about 125° C. for about five minutes", "value": "can convert to Form B"}, {"measurement": "Interconversion in solvent systems", "setting": "[3]", "value": "can convert to Form C in an acetone solvent system and to Form G in a THF solvent system"}]}
